Laboratory results: paper PMC7551609 (Viruses, 2020)
“Also recorded” adds a separate entry of the source.

Key:
ZIKV Paraiba/2015 [1] = assay: Viral inhibition assay, post-infection treatment, Vero cells; format: cell-based, Zika virus; conditions: for EC50: 36 h, ZIKV Paraiba/2015, Vero cells, post-infection treatment; for MIC: read-out: Post-treatment MIC (maximum effective concentration)
[2] = MTT cell viability in A549 cells; format: cell-based, human; conditions: human, highest concentration used 50.00 µM, sentence also cites [17]
ZIKV MR-766 strain = assay: Viral inhibition assay, post-treatment, old World strain, Vero cells; format: cell-based, Zika virus; conditions: for inhibitor category based on SI-MTT and SI-XTT: ZIKV MR-766, Vero; for EC50 / MIC: Zika virus; for EC50: old World ZIKV MR-766, Vero cells, post-treatment; for MIC: old World ZIKV MR-766 strain, read-out: MR766 MIC (maximum effective concentration)
ZIKV Paraiba/2015 [3] = assay: Viral inhibition assay, pre-treatment (prophylactic), Vero cells; format: cell-based, Zika virus; conditions: for MIC / EC50: Zika virus; for MIC: read-out: Pre-treatment MIC (maximum effective concentration); for EC50: ZIKV Paraiba/2015, Vero cells, pre-treatment 12 h before infection; for inhibitor category based on SI-MTT / inhibitor category based on SI-XTT: pre-treatment, Paraiba/2015, Vero
Caspase 3 and 7 = assay: Apoptosis assay (Caspase Glo 3/7) in ZIKV-infected Vero cells; conditions: 0, 0.1, 1, 10 EC50; 24, 48, 72 h post-treatment
ZIKV PRVABC59 strain = assay: Viral inhibition assay, post-treatment, new World strain, Vero cells; format: cell-based, Zika virus; conditions: for EC50 / MIC: Zika virus; for EC50: new World ZIKV PRVABC59, Vero cells, post-treatment, 48 h; for MIC: new World ZIKV PRVABC59, read-out: PRVABC59 MIC (maximum effective concentration)
[4] = XTT cell proliferation assay in Vero cells; format: cell-based, African green monkey; conditions: African green monkey, non-infected Vero cells, 36 h post-treatment
[5] = XTT cell proliferation in A549 cells; format: cell-based, human; conditions: human, highest concentration used 50.00 µM, sentence also cites [17]
ZIKV Paraiba/2015 [6] = assay: Viral inhibition assay, co-treatment, Vero cells; format: cell-based, Zika virus; conditions: for Co-treatment MIC (maximum effective concentration): Vero cells, ZIKV Paraiba/2015, co-treatment
[7] = MTT cell viability assay in Vero cells; format: cell-based, African green monkey; conditions: African green monkey, non-infected Vero cells, 36 h post-treatment
ZIKV Paraiba/2015 [8] = assay: Viral inhibition assay, post-treatment, human A549 cells; format: cell-based, Zika virus; conditions: for inhibitor category based on SI-MTT and SI-XTT: Paraiba/2015, A549 cells; for MIC / EC50: Zika virus; for MIC: in Homo sapiens, read-out: A549 cells MIC (maximum effective concentration); for EC50: ZIKV Paraiba/2015, A549 cells, post-treatment, 36 h
ZIKV Paraiba/2015 [9] = assay: Growth kinetics inhibition assay (infectious viral progeny), Vero cells; format: cell-based, Zika virus
[10] = post-treatment, Paraiba/2015, Vero
[11] = co-treatment, Paraiba/2015, Vero

SMILES	EC50 (ZIKV Paraiba/2015 [1]; Zika virus, Vero) [µM]	MIC (ZIKV Paraiba/2015 [1]; Zika virus) [µM]	inhibitor category based on SI-MTT and SI-XTT (ZIKV Paraiba/2015 [1]; [10])	CC50 [2] [µM]	inhibitor category based on SI-MTT and SI-XTT (ZIKV MR-766 strain)	EC50 (ZIKV MR-766 strain) [µM]	MIC (ZIKV MR-766 strain) [µM]	MIC (ZIKV Paraiba/2015 [3]) [µM]	EC50 (ZIKV Paraiba/2015 [3]) [µM]	inhibitor category based on SI-MTT (ZIKV Paraiba/2015 [3])	inhibitor category based on SI-XTT (ZIKV Paraiba/2015 [3])	EC50 (ZIKV PRVABC59 strain) [µM]	MIC (ZIKV PRVABC59 strain) [µM]	CC50 at 36 h ([4]; confluent monolayers) [µM]	CC50 [5] [µM]	Co-treatment MIC (maximum effective concentration) (ZIKV Paraiba/2015 [6]) [µM]	inhibitor category based on SI-MTT and SI-XTT (ZIKV Paraiba/2015 [6]; [11])	inhibitor category based on SI-MTT and SI-XTT (ZIKV Paraiba/2015 [8])	MIC (ZIKV Paraiba/2015 [8]) [µM]	EC50 (ZIKV Paraiba/2015 [8]) [µM]	further results
O=C(O)C1=CC(=C(c2ccc(O)c(C(=O)O)c2)c2ccc(O)c(C(=O)O)c2)C=CC1=O [ATA, Aurintricarboxylic acid]	21	> 100	moderate to weak	> 50	weak	8.08	< 33.3	> 100	9.86	potent	moderate	4.74	< 33.3	> 1350	> 50	< 33.30	potent	weak	< 100	6.67	caspase 3/7 activation in ZIKV-infected cells (Caspase 3 and 7): dose-dependent effect; inhibitor category based on SI-MTT (ZIKV PRVABC59 strain; ZIKV PRVABC59, Vero): moderate; inhibitor category based on SI-XTT (ZIKV PRVABC59 strain; ZIKV PRVABC59, Vero): weak; CC50 at 36 h ([7]; confluent monolayers): > 1350 µM; effect on production of infectious viral progeny (viral titers) (ZIKV Paraiba/2015 [9]; 10 EC50): complete inhibition
CC[C@H](CC#N)OC(=O)N[C@@H](C)c1cccc(NC(=O)Nc2ccc(-c3cnco3)c(OC)c2)c1 [AVN-944]	0.84	< 11.1	most potent; also recorded: potent	> 50	most potent; also recorded: potent	0.33	< 1.23	< 100	11.1	Potent	moderate	0.38	< 1.23	> 1350	> 50	> 100.00	moderate	Potent	< 0.41	0.05	EC50 (ZIKV Paraiba/2015 [1]): 0.98 µM; inhibitor category based on SI-MTT and SI-XTT (ZIKV PRVABC59 strain; ZIKV PRVABC59, Vero): potent; CC50 at 36 h ([7]; confluent monolayers): 273 µM; effect on production of infectious viral progeny (viral titers) (ZIKV Paraiba/2015 [9]; 0.1, 1, 10 EC50, all time points (24, 48, 72 h post-treatment), MOI 0.1): dose-dependent inhibitory effect
CCCCCC[C@H]1C(=O)O[C@H](C)[C@H](NC(=O)c2cccc(NC=O)c2O)C(=O)O[C@@H](C)[C@@H]1OC(=O)CC(C)C [Antimycin A]	1.29	< 100	moderate to weak	> 50	most potent; also recorded: potent	0.03	< 33.3	< 100	8.95	moderate	moderate	7.32	< 33.3	–	> 50	> 100.00	–	weak	< 11.1	1.71	inhibitor category based on SI-MTT (ZIKV Paraiba/2015 [1]; [10]): weak; inhibitor category based on SI-XTT (ZIKV Paraiba/2015 [1]; [10]): potent; inhibitor category based on SI-MTT and SI-XTT (ZIKV PRVABC59 strain; ZIKV PRVABC59, Vero): weak; CC50 at 36 h [4]: > 1350 µM; inhibitor category based on SI-MTT (ZIKV Paraiba/2015 [6]; [11]): moderate; inhibitor category based on SI-XTT (ZIKV Paraiba/2015 [6]; [11]): potent; CC50 at 36 h [7]: 51.3 µM; effect on production of infectious viral progeny (viral titers) (ZIKV Paraiba/2015 [9]; 72 h post-treatment): dose-dependent effect
